Data set [1] can be described thus: Pharmacokinetic test in rats after intravenous and intragastric administration (plasma, LC-MS/MS). The class given is in vivo. To be noted: male, SD, rat; for AUC(0-inf): read-out: Curve area (o-inf) AUC0-inf; for AUC(0-t): read-out: Curve area (o-t) AUC0-last; for half-life: read-out: Half-life T½ (converted); for Tmax: read-out: Peak time Tmax; for Cmax: read-out: Plasma drug concentration Cmax; for bioavailability: read-out: Bioavailability F; for Vd: read-out: Apparent volume of distribution Vdss; for clearance: read-out: Clearance rate Cl. The protocol:
Male SD rats were used as test animals, and LC-MS/MS method was used to determine the drug concentrations in plasma of rats at different times after intravenous and intragastric administration of test compounds. The pharmacokinetic behaviors of the compounds in rats were studied and the pharmacokinetic characteristics were evaluated.
2.2 Test animals: 28 healthy adult male SD rats were divided into 14 groups with 2 rats in each group. Animals were purchased from Beijing Vital River Laboratory Animal Technology Co., Ltd.
An appropriate amount of sample was weighed, and an appropriate amount of DMSO, polyoxyethylene castor oil and sterile water for injection were added in sequence according to the volume ratio of 10:10:80, then the mixture was stirred and sonicated to reach a clear state of 0.5 mg/mL for intravenous administration.
An appropriate amount of sample was weighed, and an appropriate amount of DMSO, polyoxyethylene castor oil and sterile water for injection were added in sequence according to the volume ratio of 10:10:80, then the mixture was stirred and sonicated to reach a clear or suspension state of 0.4 mg/mL for intragastric administration.
An appropriate amount of sample was weighed, and an appropriate amount of DMSO, polyoxyethylene castor oil and sterile water for injection were added in sequence according to the volume ratio of 10:10:80, then the mixture was stirred and sonicated to reach a clear state of 3 mg/mL for intravenous administration.
2.4 Administration: 28 male SD rats were divided into 14 groups, after fasting for one night, the intravenous administration group was administered with an administration volume of 2 mL/kg and a dose of 1 mg/kg; the intragastric administration group 1 was administered with an administration volume of 5 mL/kg and a dose of 2 mg/kg. The intragastric administration group 2 was administered with an administration volume of 10 mL/kg and a dose of 30 mg/kg.
After the compound was administered intravenously to male SD rats, 40 µL of blood was collected at 0.0833, 0.25, 0.5, 1, 2, 4, 8 and 24 hours, respectively, and placed in tubes containing 2 µL of EDTA-K2. After the compound was administered in the intragastric administration group, 40 µL of blood was collected at 0.25, 0.5, 1, 2, 4, 6, 10 and 24 hours, respectively, and placed in tubes containing 2 µL of EDTA-K2. The tubes were centrifuged at 4000 rpm for 15 minutes to separate the plasma, and stored at -60° C. Animals were allowed to eat 2 hours after administration.
LC-MS/MS method was used to determine the content of the test compounds in the plasma of rats after intravenous and intragastric administration. The linear range of the method was 2.00 - 6000 nmol/L; plasma samples were treated with acetonitrile to precipitate protein, and then analyzed.

For data set [2], the target named is T1, recombinant human plasma kallikrein (Human PKal) (Homo sapiens, UniProt P03952).
T1 construct: Gly20-Ala638 derived from NS0- with a 60-His appendage at the C-terminus; His tag ('60-His' [sic]) (C); purchased R&D Systems 2497-SE; host or cells: mouse myeloma cell line NS0
Put plainly: Inhibitory effect of test compounds on plasma kallikrein (PKal), fluorogenic substrate Z-FR-AMC. The format is biochemical. To be noted: 10 µM Z-FR-AMC, 10 min pre-incubation. On the procedure: 1. PKal reaction buffer: 25 mM Tris-HCl (trometamol-HCl), pH 8.0, 100 mM NaCl, […], 0.01 % Brij35 (polyoxyethylene lauryl ether), and 1 % DMSO (final concentration).
2. Enzyme: PKal (R&D Systems Cat# 2497-SE), recombinant human plasma kallikrein expressed in a mouse myeloma cell line, Gly20-Ala638 derived from NS0- with a 60-His appendage at the C-terminus, MW=70 kDa. Activation of the enzyme: (1) rhPKal was diluted to 200 µg/mL activation buffer (100 mM Tris, 10 mM CaCl2, 150 mM NaCl, pH 7.5 (TCN)); (2) thermolysin was diluted to 20 µg/mL activation buffer; (3) rhPKal (200 µg/mL) and thermolysin (20 µg/mL) were mixed in equal volumes; (4) the mixture was incubated at 37° C. for 30 min; (5) then the reactions was stopped with 50 µM EDTA (ethylenediaminetetraacetic acid).
3. Substrate (Enzo Cat# P-139): 10 µM Z-FR-AMC (AMC: 7-amino-4-methylcoumarin).
4. Detection: EnVision (PE), Ex/Em 355/460 nm.
5. Reaction process: (1) The specified enzymes and substrates were prepared in freshly prepared activation buffer; (2) the enzyme solution was injected into the reaction hole; (3) the DMSO solution of the test compound was injected into the reaction mixture, and controlled within the nanoliter range using acoustic technology (Echo 550, LabCyte Inc. Sunnyvale, CA); (4) after 10 min of pre-incubation, the substrate solution was injected into the reaction hole to start the reaction; (5) the activity of the enzyme could be indicated by the increase of the fluorescence signal of the fluorescent labeled peptide substrate, which was monitored every 5 min and lasted for 120 min at room temperature; (6) data analysis: the slope* (fluorescence signal/time) of the straight line was measured, then the slope could be calculated by excel and the curve could be fitted by Prism software.

Where [3] appears, read: po, intragastric administration (group 1), nominal 2 mg/kg (actual dose in c2).
The mark [4] stands for this setting: intravenous administration, nominal 1 mg/kg (actual dose in c2).
Setting [5] is: po, intragastric administration (group 2), nominal 30 mg/kg (actual dose in c2).

Molecules are shown by their SMILES. Counter-ions that a name gives are not always drawn. Like-named read-outs stand apart in the source and are kept apart here.

T1 sequence (P03952 20-638): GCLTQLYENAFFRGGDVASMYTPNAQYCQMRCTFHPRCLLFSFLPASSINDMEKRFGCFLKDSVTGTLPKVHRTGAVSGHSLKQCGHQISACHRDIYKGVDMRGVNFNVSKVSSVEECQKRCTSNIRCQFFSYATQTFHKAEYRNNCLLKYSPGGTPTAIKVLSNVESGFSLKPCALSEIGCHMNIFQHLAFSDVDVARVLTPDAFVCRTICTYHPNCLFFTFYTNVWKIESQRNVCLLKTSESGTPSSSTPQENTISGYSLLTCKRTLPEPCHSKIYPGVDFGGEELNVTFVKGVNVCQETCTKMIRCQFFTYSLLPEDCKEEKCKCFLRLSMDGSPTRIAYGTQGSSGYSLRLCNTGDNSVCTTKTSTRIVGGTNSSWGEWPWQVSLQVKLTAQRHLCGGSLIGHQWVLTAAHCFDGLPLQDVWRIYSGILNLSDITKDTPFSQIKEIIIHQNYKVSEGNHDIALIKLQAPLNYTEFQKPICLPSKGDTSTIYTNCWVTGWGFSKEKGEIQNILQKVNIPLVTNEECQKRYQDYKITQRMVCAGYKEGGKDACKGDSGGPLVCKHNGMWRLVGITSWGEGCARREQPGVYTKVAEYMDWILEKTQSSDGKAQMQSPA

Usually half-life stands for the time in which the quantity being followed falls by half. The term Tmax denotes the time from dosing to the highest level. The IC50 is the concentration at which inhibition is half-maximal. `COc1ccnc(CNC(=O)c2cn(Cc3ccc(Cn4cc(F)ccc4=O)cc3)nc2C2COC2)c1F` [Compound 2]: in data set [1] (setting [3]), the AUC(0-inf) was 0.246 µM·h, the AUC(0-t) was 0.241 µM·h, the half-life is 26.2 min and the time to peak (Tmax) worked out at 15 min. Moreover, the Cmax in data set [1] (setting [3]) is 301 nM. The IC50 in data set [2] was 1.53 nM.

By bioavailability is commonly meant the share of a dose that reaches the circulation, judged against a reference dose that is usually intravenous. By clearance is commonly meant a measure of how efficiently the substance is removed, as volume per time. For the molecule `COc1ccc(Cl)c(CNC(=O)c2cn(Cc3ccc(Cn4cc(F)ccc4=O)cc3)nc2C2COC2)c1F` [Compound 3], in data set [1] (setting [3]), the bioavailability stood at 19.3%, the AUC(0-inf) is 2.12 µM·h, the AUC(0-t) amounted to 2.11 µM·h and the half-life was 82.2 min. For the same molecule, in data set [1] (setting [3]), the Tmax is 30 min and the Cmax turned out to be 1760 nM. Besides, in data set [1] (setting [4]), the Vd is 0.169 L/kg, the clearance was determined as 7.85 mL/min/kg, the AUC(0-inf) was determined as 5.5 µM·h and the AUC(0-t) was 5.49 µM·h. Further, the half-life in data set [1] (setting [4]) was 42.8 min. In data set [2], the IC50 was 0.264 nM.

On to `COc1ccc(Cl)c(CNC(=O)c2cn(Cc3ccc(Cn4ccccc4=O)cc3)nc2C2COC2)c1F` [Compound 4], for which, in data set [1] (setting [3]), the bioavailability was 22.7%, the AUC(0-inf) is 1.8 µM·h, the AUC(0-t) came out at 1.79 µM·h and the half-life was 76.8 min. Further, in data set [1] (setting [3]), the Tmax was found to be 22.2 min and the Cmax stood at 1550 nM. In data set [1] (setting [4]), the Vd amounted to 0.182 L/kg, the clearance stood at 8.26 mL/min/kg, the AUC(0-inf) is 3.95 µM·h and the AUC(0-t) came to 3.94 µM·h. Besides, in data set [1] (setting [4]), the half-life is 36.3 min. The IC50 in data set [2] turned out to be 0.052 nM.

Consider `COc1ccc(F)c(CNC(=O)c2cn(Cc3ccc(Cn4ccccc4=O)cn3)nc2C2COC2)c1F` [Compound 5], for which the IC50 in data set [2] came to 18.7 nM.

As to `COc1ccc(F)c(CNC(=O)c2cn(Cc3ccc(Cn4cc(F)ccc4=O)nc3)nc2C2COC2)c1F` [Compound 6], in data set [1] (setting [3]), the AUC(0-inf) came to 0.661 µM·h, the AUC(0-t) stood at 0.653 µM·h, the half-life is 140 min and the Tmax was 22.2 min. Besides, in data set [1] (setting [3]), the Cmax came to 650 nM. Moreover, the IC50 in data set [2] came out at 2.63 nM.

On to `COc1ccc(F)c(CNC(=O)c2cn(Cc3ccc(Cn4ccccc4=O)c(F)c3)nc2C2COC2)c1F` [Compound 7], for which, in data set [1] (setting [5]), the AUC(0-inf) stood at 1.93 µM·h, the AUC(0-t) was found to be 1.84 µM·h, the half-life is 157 min and the Tmax worked out at 30 min. In addition, in data set [1] (setting [5]), the Cmax turned out to be 813 nM. Also, in data set [2], the IC50 came to 0.552 nM.

Take `COc1ccnc(CNC(=O)c2cn(Cc3ccc(Cn4cc(F)ccc4=O)cc3)nc2C2(C)COC2)c1F` [Compound 9]: in data set [2], the IC50 turned out to be 1.03 nM.

As to `COc1ccc(F)c(CNC(=O)c2cn(Cc3ccc(Cn4cc(F)ccc4=O)cc3)nc2C2(C)COC2)c1F` [Compound 10], in data set [2], the IC50 came to 0.344 nM.

`COc1ccc(F)c(CNC(=O)c2cn(Cc3ccc(Cn4ccccc4=O)cc3)nc2C2CN(C(C)=O)C2)c1F` [Compound 13]: in data set [2], the IC50 is 0.833 nM.

For `COc1ccc(F)c(CNC(=O)c2cn(Cc3ccc(Cn4ccccc4=O)cc3)nc2C2CN(S(C)(=O)=O)C2)c1F` [Compound 14], the IC50 in data set [2] turned out to be 0.717 nM.

Consider `COc1ccnc(CNC(=O)c2cn(Cc3ccc(Cn4cc(F)ccc4=O)cc3)nc2C2CN(CC(F)(F)F)C2)c1F` [Compound 15], for which the IC50 in data set [2] was 2.24 nM.

Turning to `COc1ccc(F)c(CNC(=O)c2cn(Cc3ccc(Cn4ccccc4=O)cc3)nc2C2COC2)c1F` [Compound 16], in data set [1] (setting [3]), the bioavailability was 22.1%, the AUC(0-inf) is 1.94 µM·h, the AUC(0-t) came out at 1.93 µM·h and the half-life was 136 min. Besides, in data set [1] (setting [3]), the Tmax is 45 min and the Cmax worked out at 1140 nM. Moreover, in data set [1] (setting [4]), the Vd was determined as 0.2 L/kg, the clearance came to 7.3 mL/min/kg, the AUC(0-inf) is 4.39 µM·h and the AUC(0-t) worked out at 4.37 µM·h. Besides, the half-life in data set [1] (setting [4]) was 35.8 min. In data set [2], the IC50 was 0.62 nM.

As for `COc1ccnc(CNC(=O)c2cn(Cc3ccc(Cn4ccccc4=O)cc3)nc2C2COC2)c1F` [Compound 17], in data set [1] (setting [3]), the AUC(0-inf) was 0.246 µM·h, the AUC(0-t) came to 0.237 µM·h, the half-life is 50.8 min and the Tmax was 30 min. The Cmax in data set [1] (setting [3]) amounted to 230 nM. Moreover, the IC50 in data set [2] was 0.053 nM.

In the case of `COc1ccc(F)c(CNC(=O)c2cn(Cc3ccc(Cn4ccccc4=O)cc3)nc2C2CNC2)c1F` [Hydrochloride of compound 11], in data set [2], the IC50 came to 0.269 nM.

As for `COc1ccc(F)c(CNC(=O)c2cn(Cc3ccc(Cn4ccccc4=O)cc3)nc2C2CN(C)C2)c1F` [Hydrochloride of compound 12], the IC50 in data set [2] is 1.08 nM.

On to `COc1ccnc(CNC(=O)c2cn(Cc3ccc(Cn4cc(F)ccc4=O)c(F)c3)nc2C2COC2)c1F` [Hydrochloride of compound 18], for which, in data set [2], the IC50 was 2.31 nM.

Values taken from patent US11814371B2, “Heterocyclic compound” (MEDSHINE DISCOVERY INC., priority 2020, dated 2023).
